According to patent US20050032754A1, “5,6-Trans-2-alkylvitamin D derivatives” (Hiroaki TAKAYAMA, priority 2000, published 2005):

Target: T1, Bovine thymus 1α,25-dihydroxyvitamin D3 receptor (VDR) (Bos taurus, UniProt Q28037)
T1 sequence (Q28037 1-426): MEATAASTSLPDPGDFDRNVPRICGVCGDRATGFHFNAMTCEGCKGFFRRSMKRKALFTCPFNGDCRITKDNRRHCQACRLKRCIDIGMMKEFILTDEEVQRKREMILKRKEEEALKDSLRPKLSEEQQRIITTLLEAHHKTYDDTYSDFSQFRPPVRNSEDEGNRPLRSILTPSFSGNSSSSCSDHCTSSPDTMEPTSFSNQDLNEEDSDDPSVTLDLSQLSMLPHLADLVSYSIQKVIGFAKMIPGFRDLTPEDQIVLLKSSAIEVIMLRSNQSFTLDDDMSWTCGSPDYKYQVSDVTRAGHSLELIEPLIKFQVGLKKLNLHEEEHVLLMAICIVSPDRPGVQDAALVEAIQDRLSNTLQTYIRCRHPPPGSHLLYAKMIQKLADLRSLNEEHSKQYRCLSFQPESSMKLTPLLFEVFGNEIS
Settings: relative value, 1α,25-dihydroxyvitamin D3 taken as 100; X=(y/x)×100 from concentrations inhibiting 50% of [3H]-1α,25-dihydroxyvitamin D3 binding (0.1 nM) to VDR

Structure (SMILES) | VDR binding property
C=C1/C(=C/C=C2\CCCC3(C)C2CCC3[C@@H](C)CCCC(C)(C)O)C[C@H](O)[C@@H](C)[C@@H]1O (stereo partly drawn) [Example 13, (5E,7E)-(1S,2R,3S,20S)-2-methyl-9,10-seco-5,7,10(19)-cholestatriene-1,3,25-triol] | 0.5
C=C1/C(=C/C=C2\CCCC3(C)C2CCC3[C@@H](C)CCCC(C)(C)O)C[C@H](O)[C@H](C)[C@@H]1O (stereo partly drawn) [Example 14, (5E,7E)-(1S,2S,3S,20S)-2-methyl-9,10-seco-5,7,10(19)-cholestatriene-1,3,25-triol] | 0.2
C=C1/C(=C/C=C2\CCCC3(C)C2CCC3[C@@H](C)CCCC(C)(C)O)C[C@@H](O)[C@@H](C)[C@@H]1O (stereo partly drawn) [Example 9, (5E,7E)-(1S,2R,3R,20S)-2-methyl-9,10-seco-5,7,10(19)-cholestatriene-1,3,25-triol] | 45
C=C1/C(=C/C=C2\CCC[C@]3(C)[C@@H]([C@H](C)CCCC(C)(C)O)CC[C@@H]23)C[C@@H](O)[C@@H](C)[C@H]1O [Example 3, (5E,7E)-(1R,2R,3R)-2-methyl-9,10-seco-5,7,10(19)-cholestatriene-1,3,25-triol] | 0.1
C=C1/C(=C/C=C2\CCCC3(C)C2CCC3[C@H](C)CCCC(C)(C)O)C[C@H](O)[C@@H](C)[C@H]1O (stereo partly drawn) [Example 7, (5E,7E)-(1R,2R,3S)-2-methyl-9,10-seco-5,7,10(19)-cholestatriene-1,3,25-triol] | 0.03
C=C1/C(=C/C=C2\CCCC3(C)C2CCC3[C@@H](C)CCCC(C)(C)O)C[C@H](O)[C@H](C)[C@H]1O (stereo partly drawn) [Example 16, (5E,7E)-(1R,2S,3S,20S)-2-methyl-9,10-seco-5,7,10(19)-cholestatriene-1,3,25-triol] | 0.08
C=C1/C(=C/C=C2\CCCC3(C)C2CCC3[C@H](C)CCCC(C)(C)O)C[C@H](O)[C@H](C)[C@H]1O (stereo partly drawn) [Example 8, (5E,7E)-(1R,2S,3S)-2-methyl-9,10-seco-5,7,10(19)-cholestatriene-1,3,25-triol] | < 0.01
C=C1/C(=C/C=C2\CCCC3(C)C2CCC3[C@H](C)CCCC(C)(C)O)C[C@@H](O)[C@H](C)[C@@H]1O (stereo partly drawn) [Example 2, (5E,7E)-(1S,2S,3R)-2-methyl-9,10-seco-5,7,10(19)-cholestatriene-1,3,25-triol] | 0.4

Further lines, results first:

VDR binding property | Structure (SMILES)
1 | C=C1/C(=C/C=C2\CCCC3(C)C2CCC3[C@@H](C)CCCC(C)(C)O)C[C@@H](O)[C@H](C)[C@@H]1O (stereo partly drawn) [Example 10, (5E,7E)-(1S,2S,3R,20S)-2-methyl-9,10-seco-5,7,10(19)-cholestatriene-1,3,25-triol]
< 0.01 | C=C1C(=CC=C2CCCC3(C)C2CCC3C(C)CCCC(C)(C)O)CC(O)C(C)C1O [Example 4, (5E,7E)-(1R,2S,3R)-2-methyl-9,10-seco-5,7,10(19)-cholestatriene-1,3,25-triol]
0.8 | C=C1C(=CC=C2CCCC3(C)C2CCC3C(C)CCCC(C)(C)O)CC(O)C(C)C1O [Example 11, (5E,7E)-(1R,2R,3R,20S)-2-methyl-9,10-seco-5,7,10(19)-cholestatriene-1,3,25-triol]
0.03 | C=C1/C(=C/C=C2\CCCC3(C)C2CCC3[C@@H](C)CCCC(C)(C)O)C[C@@H](O)[C@H](C)[C@H]1O (stereo partly drawn) [Example 12, (5E,7E)-(1R,2S,3R,20S)-2-methyl-9,10-seco-5,7,10(19)-cholestatriene-1,3,25-triol]
0.2 | C=C1/C(=C/C=C2\CCCC3(C)C2CCC3[C@@H](C)CCCC(C)(C)O)C[C@H](O)[C@@H](C)[C@H]1O (stereo partly drawn) [Example 15, (5E,7E)-(1R,2R,3S,20S)-2-methyl-9,10-seco-5,7,10(19)-cholestatriene-1,3,25-triol]
0.013 | C=C1/C(=C/C=C2\CCCC3(C)C2CCC3[C@H](C)CCCC(C)(C)O)C[C@H](O)[C@H](C)[C@@H]1O (stereo partly drawn) [Example 6, (5E,7E)-(1S,2S,3S)-2-methyl-9,10-seco-5,7,10(19)-cholestatriene-1,3,25-triol]
0.04 | C=C1/C(=C/C=C2\CCCC3(C)C2CCC3[C@H](C)CCCC(C)(C)O)C[C@H](O)[C@@H](C)[C@@H]1O (stereo partly drawn) [Example 5, (5E,7E)-(1S,2R,3S)-2-methyl-9,10-seco-5,7,10(19)-cholestatriene-1,3,25-triol]
8.6 | C=C1/C(=C/C=C2\CCCC3(C)C2CCC3[C@H](C)CCCC(C)(C)O)C[C@@H](O)[C@@H](C)[C@@H]1O (stereo partly drawn) [Example 1, (5E,7E)-(1S,2R,3R)-2-methyl-9,10-seco-5,7,10(19)-cholestatriene-1,3,25-triol]
